Source: article doi:10.1101/2025.06.19.660642, “Discovery of orally bioavailable Zika and West Nile Virus antiviral compounds targeting the NS2B-NS3 protease” (bioRxiv, 2025)

Target: T1, ZIKV NS2B-NS3 protease (Zika virus, UniProt A0A024B7W1)
T1 construct: directed at the co-expressed ZIKV NS2B-NS3 protease
Assay: ZIKV NS2B-NS3 protease biochemical FRET assay
Conditions: Ligand efficiency = pKi / heavy atom count

T1 sequence (A0A024B7W1 1503-1680): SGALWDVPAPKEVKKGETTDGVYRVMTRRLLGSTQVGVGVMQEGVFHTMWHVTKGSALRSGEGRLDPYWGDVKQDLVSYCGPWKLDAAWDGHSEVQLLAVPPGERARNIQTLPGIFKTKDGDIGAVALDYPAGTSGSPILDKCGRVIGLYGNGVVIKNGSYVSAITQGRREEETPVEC
T1 sequence (A0A024B7W1 1425-1464): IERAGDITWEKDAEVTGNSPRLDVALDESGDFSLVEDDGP

Compound | Ligand efficiency (LE)
NCc1cccc(NC(=O)c2cc(Cl)cc(NC(=O)OCc3ccccc3)c2)c1 [ASAP-0016806] | 0.259

Same assay, conditions: ZIKV NS2B-NS3 Ki

Compound | Ki
NCc1cccc(NC(=O)c2cc(Cl)cc(NC(=O)OCc3ccccc3)c2)c1 [ASAP-0016806] | 4.3 µM

Same assay, conditions: ZIKV NS2B-NS3 Ki (uM), library 1, supplement

Compound | Ki
NCc1ccc(NC(=O)c2cc(Cl)cc(NC(=O)OCc3ccccc3)c2)cc1 [ASAP-0017575, NCc1ccc(NC(=O)c2cc(Cl)cc(NC(=O)OCc3ccccc3)c2)cc1] | 9.23 µM
NCc1nccc(NC(=O)c2cc(Cl)cc(NC(=O)OCc3ccccc3)c2)n1 [ASAP-0017603, NCc1nccc(NC(=O)c2cc(Cl)cc(NC(=O)OCc3ccccc3)c2)n1] | > 89.3 µM
NC[C@H]1CC[C@H](NC(=O)c2cc(Cl)cc(NC(=O)OCc3ccccc3)c2)CC1 [ASAP-0017626, NC[C@H]1CC[C@H](NC(=O)c2cc(Cl)cc(NC(=O)OCc3ccccc3)c2)CC1] | > 89.3 µM
O=C(Nc1cc(Cl)cc(C(=O)Nc2cccc(CC3CCNCC3)c2)c1)OCc1ccccc1 [ASAP-0017638, O=C(Nc1cc(Cl)cc(C(=O)Nc2cccc(CC3CCNCC3)c2)c1)OCc1ccccc1] | > 89.3 µM
NCCc1cccc(NC(=O)c2cc(Cl)cc(NC(=O)OCc3ccccc3)c2)c1 [ASAP-0017670, NCCc1cccc(NC(=O)c2cc(Cl)cc(NC(=O)OCc3ccccc3)c2)c1] | 3.51 µM
NC1(c2cccc(NC(=O)c3cc(Cl)cc(NC(=O)OCc4ccccc4)c3)c2)CCC1 [ASAP-0017671, NC1(c2cccc(NC(=O)c3cc(Cl)cc(NC(=O)OCc4ccccc4)c3)c2)CCC1] | > 89.3 µM
CN(C(=O)c1cc(Cl)cc(NC(=O)OCc2ccccc2)c1)c1ccc(CN)cc1 [ASAP-0017677, CN(C(=O)c1cc(Cl)cc(NC(=O)OCc2ccccc2)c1)c1ccc(CN)cc1] | > 89.3 µM
NCC1CCN(C(=O)c2cc(Cl)cc(NC(=O)OCc3ccccc3)c2)CC1 [ASAP-0017689, NCC1CCN(C(=O)c2cc(Cl)cc(NC(=O)OCc3ccccc3)c2)CC1] | 87.4 µM
NCCc1ccc(NC(=O)c2cc(Cl)cc(NC(=O)OCc3ccccc3)c2)cc1 [ASAP-0017692, NCCc1ccc(NC(=O)c2cc(Cl)cc(NC(=O)OCc3ccccc3)c2)cc1] | 9.64 µM
NC1CCN(C(=O)c2cc(Cl)cc(NC(=O)OCc3ccccc3)c2)CC1 [ASAP-0017695, NC1CCN(C(=O)c2cc(Cl)cc(NC(=O)OCc3ccccc3)c2)CC1] | > 89.3 µM
O=C(Nc1cc(Cl)cc(C(=O)Nc2cccc(C3CCNCC3)c2)c1)OCc1ccccc1 [ASAP-0017708, O=C(Nc1cc(Cl)cc(C(=O)Nc2cccc(C3CCNCC3)c2)c1)OCc1ccccc1] | 11.2 µM
NCCNC(=O)c1cc(Cl)cc(NC(=O)OCc2ccccc2)c1 [ASAP-0017736, NCCNC(=O)c1cc(Cl)cc(NC(=O)OCc2ccccc2)c1] | > 89.3 µM
NC[C@H]1CC[C@H](CNC(=O)c2cc(Cl)cc(NC(=O)OCc3ccccc3)c2)CC1 [ASAP-0017744, NC[C@H]1CC[C@H](CNC(=O)c2cc(Cl)cc(NC(=O)OCc3ccccc3)c2)CC1] | 23.1 µM
CC(C)N1CCc2nc(NC(=O)c3cc(Cl)cc(NC(=O)OCc4ccccc4)c3)sc2C1 [ASAP-0020812, CC(C)N1CCc2nc(NC(=O)c3cc(Cl)cc(NC(=O)OCc4ccccc4)c3)sc2C1] | > 89.3 µM
CN(C)Cc1cc(NC(=O)c2cc(Cl)cc(NC(=O)OCc3ccccc3)c2)sn1 [ASAP-0020825, CN(C)Cc1cc(NC(=O)c2cc(Cl)cc(NC(=O)OCc3ccccc3)c2)sn1] | > 89.3 µM
Cn1nc2c(c1NC(=O)c1cc(Cl)cc(NC(=O)OCc3ccccc3)c1)CNC2 [ASAP-0020883, Cn1nc2c(c1NC(=O)c1cc(Cl)cc(NC(=O)OCc3ccccc3)c1)CNC2] | > 89.3 µM
CN1CCn2nc(NC(=O)c3cc(Cl)cc(NC(=O)OCc4ccccc4)c3)cc2C1 [ASAP-0020900, CN1CCn2nc(NC(=O)c3cc(Cl)cc(NC(=O)OCc4ccccc4)c3)cc2C1] | > 89.3 µM
CN1CCc2nc(NC(=O)c3cc(Cl)cc(NC(=O)OCc4ccccc4)c3)sc2C1 [ASAP-0020935, CN1CCc2nc(NC(=O)c3cc(Cl)cc(NC(=O)OCc4ccccc4)c3)sc2C1] | > 89.3 µM
O=C(Nc1cc(Cl)cc(C(=O)Nc2ncc3n2CCNC3)c1)OCc1ccccc1 [ASAP-0020975, O=C(Nc1cc(Cl)cc(C(=O)Nc2ncc3n2CCNC3)c1)OCc1ccccc1] | > 89.3 µM
O=C(Nc1cc(Cl)cc(C(=O)Nc2cc3n(n2)CCNC3)c1)OCc1ccccc1 [ASAP-0020976, O=C(Nc1cc(Cl)cc(C(=O)Nc2cc3n(n2)CCNC3)c1)OCc1ccccc1] | > 89.3 µM
O=C(Nc1cc(Cl)cc(C(=O)Nc2cnc3n2CCNC3)c1)OCc1ccccc1 [ASAP-0021001, O=C(Nc1cc(Cl)cc(C(=O)Nc2cnc3n2CCNC3)c1)OCc1ccccc1] | > 89.3 µM
O=C(Nc1cc(Cl)cc(C(=O)Nc2nc3c(s2)CNC3)c1)OCc1ccccc1 [ASAP-0021026, O=C(Nc1cc(Cl)cc(C(=O)Nc2nc3c(s2)CNC3)c1)OCc1ccccc1] | 76.9 µM

Compound | Ki
O=C(Nc1cc(Cl)cc(C(=O)Nc2n[nH]c3c2CNC32CC2)c1)OCc1ccccc1 [ASAP-0021028, O=C(Nc1cc(Cl)cc(C(=O)Nc2n[nH]c3c2CNC32CC2)c1)OCc1ccccc1] | > 89.3 µM
O=C(Nc1cc(Cl)cc(C(=O)Nc2nc3c(s2)CCNC3)c1)OCc1ccccc1 [ASAP-0021029, O=C(Nc1cc(Cl)cc(C(=O)Nc2nc3c(s2)CCNC3)c1)OCc1ccccc1] | 48 µM
Cn1nc(NC(=O)c2cc(Cl)cc(NC(=O)OCc3ccccc3)c2)c2c1CNC2 [ASAP-0021036, Cn1nc(NC(=O)c2cc(Cl)cc(NC(=O)OCc3ccccc3)c2)c2c1CNC2] | > 89.3 µM
O=C(Nc1cc(Cl)cc(C(=O)Nc2n[nH]c3c2CNC3)c1)OCc1ccccc1 [ASAP-0021061, O=C(Nc1cc(Cl)cc(C(=O)Nc2n[nH]c3c2CNC3)c1)OCc1ccccc1] | 36.1 µM
NCc1cn(CCNC(=O)c2cc(Cl)cc(NC(=O)OCc3ccccc3)c2)nn1 [ASAP-0021085, NCc1cn(CCNC(=O)c2cc(Cl)cc(NC(=O)OCc3ccccc3)c2)nn1] | > 89.3 µM
C[C@H](N)c1cccc(NC(=O)c2cc(Cl)cc(NC(=O)OCc3ccccc3)c2)c1 [ASAP-0021091, C[C@H](N)c1cccc(NC(=O)c2cc(Cl)cc(NC(=O)OCc3ccccc3)c2)c1] | 12.3 µM
O=C(Nc1cc(Cl)cc(C(=O)NCC2(CO)CCNCC2)c1)OCc1ccccc1 [ASAP-0021096, O=C(Nc1cc(Cl)cc(C(=O)NCC2(CO)CCNCC2)c1)OCc1ccccc1] | > 89.3 µM
NCc1nc(CNC(=O)c2cc(Cl)cc(NC(=O)OCc3ccccc3)c2)cs1 [ASAP-0021116, NCc1nc(CNC(=O)c2cc(Cl)cc(NC(=O)OCc3ccccc3)c2)cs1] | > 89.3 µM
Cc1c(CN)cccc1NC(=O)c1cc(Cl)cc(NC(=O)OCc2ccccc2)c1 [ASAP-0021118, Cc1c(CN)cccc1NC(=O)c1cc(Cl)cc(NC(=O)OCc2ccccc2)c1] | 40.1 µM
Cc1ccc(NC(=O)c2cc(Cl)cc(NC(=O)OCc3ccccc3)c2)cc1CN [ASAP-0021119, Cc1ccc(NC(=O)c2cc(Cl)cc(NC(=O)OCc3ccccc3)c2)cc1CN] | 9.81 µM
NC12CCC(CNC(=O)c3cc(Cl)cc(NC(=O)OCc4ccccc4)c3)(CC1)OC2 [ASAP-0021132, NC12CCC(CNC(=O)c3cc(Cl)cc(NC(=O)OCc4ccccc4)c3)(CC1)OC2] | 29.7 µM
NCc1ccc(O)c(NC(=O)c2cc(Cl)cc(NC(=O)OCc3ccccc3)c2)c1 [ASAP-0021142, NCc1ccc(O)c(NC(=O)c2cc(Cl)cc(NC(=O)OCc3ccccc3)c2)c1] | 16.3 µM
NCCc1nsc(NC(=O)c2cc(Cl)cc(NC(=O)OCc3ccccc3)c2)n1 [ASAP-0021153, NCCc1nsc(NC(=O)c2cc(Cl)cc(NC(=O)OCc3ccccc3)c2)n1] | > 89.3 µM
Cn1nc(CCN)nc1NC(=O)c1cc(Cl)cc(NC(=O)OCc2ccccc2)c1 [ASAP-0021177, Cn1nc(CCN)nc1NC(=O)c1cc(Cl)cc(NC(=O)OCc2ccccc2)c1] | 28.1 µM
O=C(Nc1cc(Cl)cc(C(=O)Nc2cccc3c2CNC3)c1)OCc1ccccc1 [ASAP-0021189, O=C(Nc1cc(Cl)cc(C(=O)Nc2cccc3c2CNC3)c1)OCc1ccccc1] | 67.8 µM
Cc1cc(CN)cc(NC(=O)c2cc(Cl)cc(NC(=O)OCc3ccccc3)c2)c1 [ASAP-0021201, Cc1cc(CN)cc(NC(=O)c2cc(Cl)cc(NC(=O)OCc3ccccc3)c2)c1] | 4.63 µM
NCCCc1ccnc(NC(=O)c2cc(Cl)cc(NC(=O)OCc3ccccc3)c2)c1 [ASAP-0021210, NCCCc1ccnc(NC(=O)c2cc(Cl)cc(NC(=O)OCc3ccccc3)c2)c1] | 16.5 µM
CN(C)Cc1csc(NC(=O)c2cc(Cl)cc(NC(=O)OCc3ccccc3)c2)n1 [ASAP-0021243, CN(C)Cc1csc(NC(=O)c2cc(Cl)cc(NC(=O)OCc3ccccc3)c2)n1] | > 89.3 µM
O=C(Nc1cc(Cl)cc(C(=O)NCc2n[nH]c3c2CNCC3)c1)OCc1ccccc1 [ASAP-0021271, O=C(Nc1cc(Cl)cc(C(=O)NCc2n[nH]c3c2CNCC3)c1)OCc1ccccc1] | > 89.3 µM
Cn1nc2c(c1NC(=O)c1cc(Cl)cc(NC(=O)OCc3ccccc3)c1)CNCC2 [ASAP-0021291, Cn1nc2c(c1NC(=O)c1cc(Cl)cc(NC(=O)OCc3ccccc3)c1)CNCC2] | 19.7 µM
NCCCc1ccc(F)c(NC(=O)c2cc(Cl)cc(NC(=O)OCc3ccccc3)c2)c1 [ASAP-0021296, NCCCc1ccc(F)c(NC(=O)c2cc(Cl)cc(NC(=O)OCc3ccccc3)c2)c1] | 5.63 µM
Cn1nc2c(c1NC(=O)c1cc(Cl)cc(NC(=O)OCc3ccccc3)c1)CCNC2 [ASAP-0021390, Cn1nc2c(c1NC(=O)c1cc(Cl)cc(NC(=O)OCc3ccccc3)c1)CCNC2] | > 89.3 µM

Same assay, conditions: ZIKV NS2B-NS3 pKi, library 1, supplement

Compound | Ki
NCCCc1cccc(NC(=O)c2cc(Cl)cc(NC(=O)OCc3ccccc3)c2)n1 [ASAP-0021169, NCCCc1cccc(NC(=O)c2cc(Cl)cc(NC(=O)OCc3ccccc3)c2)n1] | 17 µM

Same assay, conditions: library 1, supplement

Compound | ZIKV NS2B-NS3 pKi
C[C@@H](N)c1ccc(NC(=O)c2cc(Cl)cc(NC(=O)OCc3ccccc3)c2)cc1 [ASAP-0017733, C[C@@H](N)c1ccc(NC(=O)c2cc(Cl)cc(NC(=O)OCc3ccccc3)c2)cc1 ¦&1:1¦] | 4.88
O=C(Nc1cc(Cl)cc(C(=O)NC[C@@H]2CCNC3(CC3)C2)c1)OCc1ccccc1 [ASAP-0021400, O=C(Nc1cc(Cl)cc(C(=O)NC[C@@H]2CCNC3(CC3)C2)c1)OCc1ccccc1 ¦&1:13¦] | < 4.05

Same assay, conditions: library 1, supplement; read-out: ZIKV NS2B-NS3 Ki

Compound | Ki
C[C@@H](N)c1ccc(NC(=O)c2cc(Cl)cc(NC(=O)OCc3ccccc3)c2)cc1 [ASAP-0017733, C[C@@H](N)c1ccc(NC(=O)c2cc(Cl)cc(NC(=O)OCc3ccccc3)c2)cc1 ¦&1:1¦] | 13.1 µM
O=C(Nc1cc(Cl)cc(C(=O)NC[C@@H]2CCNC3(CC3)C2)c1)OCc1ccccc1 [ASAP-0021400, O=C(Nc1cc(Cl)cc(C(=O)NC[C@@H]2CCNC3(CC3)C2)c1)OCc1ccccc1 ¦&1:13¦] | > 89.3 µM

Same assay, conditions: read-out: inhibition in biochemical assay

Compound | inhibition at 100 µM
CN(C)Cc1ccc(C(=O)Nc2cc(Cl)cc(C(=O)NC(C)(C)CO)c2)[nH]1 [ASAP-0015373] | 30%
